Data as given in patent US20080293676A1, “Insecticidal Agents Based on Selected Insecticides and Safeners” (priority 2004, published 2008).

Assays:
Format in all cases: in vivo
[1] = test system: caterpillars of the cotton boll worm (Heliothis armigera); test: Heliothis armigera test, spray treatment to runoff on cotton plants; conditions: Table A, 4 ppm
Text: (§1) The expected activity for a given combination of two active ingredients can be calculated (cf. Colby, S. R.; “Calculating Synergistic and Antagonistic Responses of Herbicide Combinations”, Weeds 15, pages 20-22, 1967):
(§2) If • x=the kill rate, expressed in % of the untreated control, when employing active ingredient A at an application rate of m ppm, • Y=the kill rate, expressed in % of the untreated control, when employing active ingredient B at an application rate of n ppm, and • E=the kill rate, expressed in % of the untreated control, when employing active ingredients A and B at application rates of m and n ppm, then
(§3) If the actual insecticidal kill rate is higher than the calculated one, the kill of the combination is superadditive, i.e. a synergistic effect is present. In this case, the kill rate that is actually observed has to be higher than the value, calculated using the formula above, for the expected kill rate (E).
(§4) An appropriate solution is prepared by mixing 1 part by weight of formulation with the stated amount of water and adjuvant, and diluting the concentrate with water to the desired concentration.
a) Heliothis armigera Test […]
After the desired time the kill in % is determined in each case. […] The kill figures determined are calculated in accordance with the Colby formula described above.

[2] = test system: larvae of the cabbage moth (Plutella xylostella); test: Plutella xylostella test, spray treatment to runoff on cabbage plants; conditions: Table B
Text: as §1, §2, §3, §4
c) Plutella xylostella Test
Cabbage plants (Brassica pekinesis) are sprayed to runoff with the desired use concentration and are populated with larvae of the cabbage moth (Plutella xylostella) while the leaves are still wet.
(§5) After the desired time the kill in % is determined in each case. In this context, 100% means that all of the larvae have been killed; 0% means that no larvae have been killed. The kill figures determined are calculated in accordance with the Colby formula described above.

[3] = test system: caterpillars of the army worm (Spodoptera frugiperda); test: Spodoptera frugiperda test, spray treatment to runoff on corn plants
Text: as §1, §2, §3, §4
b) Spodoptera frugiperda Test
Corn plants (Zea mais) are sprayed to runoff with the desired use concentration and are populated with caterpillars of the army worm (Spodoptera frugiperda) while the leaves are still wet.
as §5

[4] = test system: cotton aphid (Aphis gossypii); test: Aphis gossypii test, spray treatment to runoff on infested cotton plants
Text: as §1, §2, §3, §4
Cotton plants (Gossypium herbaceum) heavily infested by the cotton aphid (Aphis gossypii) are sprayed to runoff with the desired concentration of the application solution.
as §5

[5] = test system: green peach aphid (Myzus persicae); test: Myzus persicae test, spray treatment to runoff on infested bell pepper plants; conditions: for Kill in % after 1^d: Table E2
Text: as §1, §2, §3, §4
Bell pepper plants (Capsicum sativum) heavily infested by the green peach aphid (Myzus persicae) are sprayed to runoff with the desired concentration of the application solution.
as §5

Chlorpyrifos was tested, and the “Kill in % after 3^d” value [1] was 0%, the “Kill in % after 7^d” value ([2]; 4 ppm) was 0% and the “Kill in % after 3^d” value ([3]; Table C1, 4 ppm) was 50%.
For C=CCN(CC=C)C(=O)C(Cl)Cl [Dichlormid a.i., 2,2-dichloro-N,N-di-2-propenylacetamide], the “Kill in % after 3^d” value ([3]; Table C2, 50 ppm) was 0% and the “Kill in % after 3^d” value ([4]; Table D1, 100 ppm) was 0%.
With Clc1cc(Cl)nc(-c2ccccc2)n1 [Fenclorim, 4,6-dichloro-2-phenylpyrimidine] the “Kill in % after 7^d” value ([2]; 100 ppm) was 0%, the “Kill in % after 3^d” value ([3]; Table C2, 100 ppm) was 0% and the “Kill in % after 3^d” value ([4]; Table D1, 100 ppm) was 0%. The “Kill in % after 3^d” value ([4]; Table D2, 100 ppm) was 0%.
CNC(=O)Oc1cc(C)c(SC)c(C)c1 [Methiocarb] was tested, and the “Kill in % after 7^d” value ([2]; 20 ppm) was 0% and the “Kill in % after 3^d” value ([3]; Table C2, 20 ppm) was 17%.
In the case of CC1(C)C(C=C(Cl)Cl)C1C(=O)OC(C#N)c1ccc(F)c(Oc2ccccc2)c1 (stereo not drawn) [β-Cyfluthrin, Beta-Cyfluthrin], the “Kill in % after 3^d” value ([4]; Table D1, 0.8 ppm) is reported as 35% and the “Kill in % after 3^d” value ([5]; Table E1, 0.8 ppm, after 3 d) is reported as 10%.
With CC1(C)OC(c2ccco2)CN1C(=O)C(Cl)Cl (stereo not shown) [Furilazole a.i., 3-dichloroacetyl-5-(2-furanyl)-2,2-dimethyloxazolidine] the “Kill in % after 3^d” value ([3]; Table C2, 100 ppm) was 0%, the “Kill in % after 3^d” value ([4]; Table D1, 100 ppm) was 0% and the “Kill in % after 3^d” value ([4]; Table D2, 100 ppm) was 0%. For the same compound, the “Kill in % after 1^d” value ([5]; 100 ppm) was 0%.
In the case of CC1(C)[C@H](C(=O)O[C@H](C#N)c2cccc(Oc3ccccc3)c2)[C@@H]1C=C(Br)Br [Deltamethrin], the “Kill in % after 3^d” value ([4]; Table D2, 0.8 ppm) is reported as 15% and the “Kill in % after 1^d” value ([5]; 0.8 ppm) is reported as 20%.
